Several values for one entry are separate records, joined by “and”; a condition that tells them apart may be missing. Equal values may be shown once.
Legend:
ESBL KPN = test: Potentiation of antibiotics with PNAs (Bliss Independence); format: cell-based, Klebsiella pneumoniae; conditions: 10 μM PNA + 2 μg/mL tetracycline
Protocol: (§1) Combinatorial effects were evaluated using the Bliss Independence model where the S parameter defines a deviation from no interaction as is defined as: […]
(§2) Where ODAB is the OD at saturation time in only antibiotic, OD0 is the OD at saturation in no treatment, ODPNA is the OD at saturation in only antisense-PNA at 10 μM, and ODAB, PNA is the OD at saturation in a combination of antibiotic and antisense-PNA. Saturation time was determined as the time when the no treatment control reached its saturation growth phase. S>0 is a deviation towards synergy and S<0 is a deviation towards antagonism.

[1] = test system: intracellular SL1344 S. typhimurium in HeLa cells; test: Salmonella infection of HeLa cells and PNA treatment (T3SS-PNA or naked PNA); format: cell-based, Salmonella enterica serovar typhimurium; conditions: for reduction of intra-epithelial Salmonella CFU: PNA delivered via the T3SS, vs no treatment, p<0.05; for reduction of intra-epithelial Salmonella CFU / clearing of infection (in words): 10 μM, 18 hours; for GFP expressing Salmonella in images (in words): T3SS-PNA treatment, compared to no treatment or Naked-PNA treatment; for clearing of infection (in words): naked PNA added exogenously after infection, compared to no treatment
Protocol: FIG. 4. Establishing the bacterial Type III secretion system (T3SS) for PNA transport. (A) Schematic showing enhancement of PNA delivery into HeLa cells using the bacterial T3SS of Salmonella enterica serovar typhimurium (STm) for treatment of an intracellular infection of STm. HeLa cells were seeded and allowed to grow for 24 h. SL1344 GFP STm was added at a MOI of 10:1 and allowed to infect HeLa cells for 45 min following two separate conditions: (Top) No PNA is added during this time, termed here as Naked PNA treatment, (Bottom) PNA is added at the time of infection at t=0 to utilize the T3SS, termed here as T3SS-PNA treatment. The T3SS-PNAs enter Salmonella during 45 minutes of incubation due to transport enhanced by the cell penetrating peptides, followed by entry into host cells via T3SS encoding and PNA carrying STm. (Top and Bottom). After 45 minutes infected HeLa cells are washed and treated with media containing gentamicin for 75 minutes to kill extracellular bacteria. The cells are then incubated for 18 h with media containing gentamicin following the two separate conditions: (Top) PNA supplied after infection for Naked PNA treatment. (Bottom) No PNA is added after infection. Post 18 hours of treatment HeLa cells are fixed for imaging or lysed for Colony forming Unit (CFU) analysis. (B) Representative images of uninfected (Top left), and infected HeLa cells without treatment (Bottom left). Top (right) panels show representative images of infected HeLa cells following Naked-PNA treatment. Bottom (right) panels show representative images of infected HeLa cells following T3SS-PNA treatment. HeLa cells are stained with nucleic stain DAPI (blue), and membrane stain Phalloidin (pink), and green pixels represent intracellular SL1344 S. typhimurium fluorescing GFP (green). […] (C) Intracellular S. typhimurium load (CFU/mL) in presence or absence of treatment. Significant reduction in STm CFU in HeLa cells when PNA is delivered using T3SS.
For all cases, HeLa cells were infected at time t=0 with SL1344 for 45 minutes with a multiplicity of infection (MOI) of bacteria to HeLa cells of approximately 10:1. For the T3SS-PNA treatment method HeLa cells were co-incubated with SL1344 and either α-rpsD or α-lexA for 45 minutes, allowing the PNA to enter the Salmonella while simultaneously transporting the PNA-carrying Salmonella into the HeLa cells using the T3SS. […] Post-infection, the cells were washed and incubated with media containing gentamicin for a period of 75 minutes to remove any extracellular bacteria and/or PNA. For all treatments the media was then replaced with fresh gentamicin containing growth medium, with the naked PNA treatment condition also containing 10 μM PNA, and incubated an additional 18 (FIG. 4A). At the end of 18 hours, cultures were analyzed via imaging or measured by intra-epithelial colony forming units (CFU). […] The present inventors obtained similar results in an infection of mouse osteoblast cells (FIG. 11B).
Salmonella infection of HeLa cells and PNA treatment: For a single infection (FIG. 4), SL1344 cultures were inoculated from a single colony on solid media in to 1 mL of LB media and grown for 16 hours at 37° C. with shaking. Cultures were diluted 1:10 and regrown in LB prior to infection. Bacteria were washed thrice with PBS, optical density at 600 nm measured, and diluted to a multiplicity of infection (MOI) of 10 in Dulbecco PBS (DPBS). MOI is calculated based on an established optical density and colony forming unit (CFU) calibration, and the number of mammalian cells per well at the time of infection approximated based on their doubling time. Mammalian cells were washed thrice with Dulbecco's Phosphate-Buffered Saline (DPBS, Fisher Scientific) prior to infection for 45 minutes 37° C. with controlled humidity. […]

NDM-1 KPN = test: Potentiation of antibiotics with PNAs (Bliss Independence); format: cell-based, Klebsiella pneumoniae; conditions: 10 μM PNA + 8 μg/mL meropenem, compared to meropenem monotherapy
Protocol: as §1, §2

MDR E. coli = test: PNA growth assay (optical density) on clinical isolate; format: cell-based, Escherichia coli
Protocol: Bacterial Cell culture: The clinical isolates were obtained from the lab of Nancy Madinger at the University of Colorado Anschutz campus. Clinical isolates were grown in Cation Adjusted Mueller Hinton broth (CAMHB) (Becton, Dickinson and Company 212322) at 37° C. with 225 rpm shaking or on solid CAMHB with 1.5% agar at 37° C. Clinical isolates were maintained as freezer stocks in 90% CAMHB, 10% glycerol at −80° C. Freezer stocks were streaked out onto solid CAMHB and incubated for 16 h to produce single colonies prior to experiments. For each biological replicate, a single colony was picked from solid media and grown for 16 h in liquid CAMHB prior to experiments. Non-clinical isolates, such as E. coli MG1655 (ATCC700926) and Salmonella entorica serovar typhimurium SL1344, were cultured in liquid 2% lysogeny broth (LB) or on 2% LB with 1.5% agar for solid plates. S. typhimurium cultures were supplemented with 30 μg/mL streptomycin and SL1344 strains containing plasmids pFPV (SL1344-mCherry) or pRG1 modified with a lacIq promoter (SL1344-Holin) were supplemented with 100 μg/mL ampicillin. Freezer stocks were stored in 60% LB broth, 40% glycerol at −80° C. Freezer stocks were streaked out onto solid LB and incubated for 16 h to produce single colonies before experiments. For biological replicates, single colonies were started in liquid LB and grown for 16 hours prior to experiments. E. coli MG1655 PNA growth experiments were carried out in M9 media (1×M9 minimal media salts solution (MP Biomedicals), 2.0 mM MgSO4, and 0.1 mM CaCl2 in sterile water) with 0.4% glucose.
PNA growth assay: Biological replicates were diluted 1:10,000 into treatment condition in 384-well plates and measured for 24 h in a Tecan GENios at 562 nm with a bandwidth of 35 nm. Media absorbance blanks were subtracted from data prior to analysis. Normalized optical density (OD) data is shown normalized to the time point where the “no treatment” growth curves reached saturation phase which varied across biological replicates.

Substance | growth with combination therapy (in words) (ESBL KPN) | S-value (Bliss Independence model) (ESBL KPN; S>0 indicates synergy) | reduction of intra-epithelial Salmonella CFU [1] [%] | GFP expressing Salmonella in images (in words) [1] | clearing of infection (in words) [1] | growth with combination therapy (in words) (NDM-1 KPN) | monotherapy effect (in words) (MDR E. coli) | growth inhibition (MDR E. coli; 10 μM PNA, optical density vs no treatment at 16 hours)
α-lexA: 12-mer antisense PNA cGGAATGAAAGC (SEQ ID NO. 17) targeting lexA, conjugated to (KFF)3K cell penetrating peptide via AEEA-linker (antisense CGGAATGAAAGC; all peptide nucleic acid (PNA); (KFF)3K cell-penetrating peptide attached via AEEA linker) | significant growth inhibition compared to each monotherapy | positive | ~69±8 | evident decrease in GFP expressing Salmonella | not effective in clearing an infection | – | – | –
α-rpsD: 12-mer antisense PNA AGAAAATGGCAA (SEQ ID NO. 19) targeting rpsD, conjugated to (KFF)3K cell penetrating peptide via AEEA-linker (all peptide nucleic acid (PNA); (KFF)3K cell-penetrating peptide attached via AEEA linker) | – | – | ~82±13 | evident decrease in GFP expressing Salmonella | not effective in clearing an infection | significantly reduced the growth | effective in killing | 98±0.7% and 98%

From patent US20210087565A1, “ANTISENSE ANTIBIOTICS AND BACTERIAL SECRETION BASED DELIVERY SYSTEM TO ELIMINATE DRUG-RESISTANT BACTERIA” (priority 2018, published 2021)
